Laboratory results from the kinase profiling compilation of Christmann-Franck et al. (2016).

Key:
Assay in all cases: KINOMEscan competition binding
Conditions in all cases: compound 10.0 µM
CSNK1E (human) = CSNK1E (human) (UniProt P49674)
CLK4 (human) = CLK4 (human) (UniProt Q9HAZ1)
PAK7 (human) = PAK7 (human) (UniProt Q9P286)
ADCK3 (human) = ADCK3 (human) (UniProt Q8NI60)
CDK5 (human) = CDK5 (human) (UniProt Q00535)
SRPK1 (human) = SRPK1 (human) (UniProt Q96SB4)
TESK1 (human) = TESK1 (human) (UniProt Q15569)
MARK1 (human) = MARK1 (human) (UniProt Q9P0L2)
[1] = test system: KIT (human), P10721 [V559D]
PTK2 (human) = PTK2 (human) (UniProt Q05397)
PRKCH (human) = PRKCH (human) (UniProt P24723)
TLK1 (human) = TLK1 (human) (UniProt Q9UKI8)
PDGFRB (human) = PDGFRB (human) (UniProt P09619)
IKBKE (human) = IKBKE (human) (UniProt Q14164)
STK36 (human) = STK36 (human) (UniProt Q9NRP7)
CDC42BPA (human) = CDC42BPA (human) (UniProt Q5VT25)
DMPK (human) = DMPK (human) (UniProt Q09013)
CAMK2B (human) = CAMK2B (human) (UniProt Q13554)
ACVR2A (human) = ACVR2A (human) (UniProt P27037)
EPHB2 (human) = EPHB2 (human) (UniProt P29323)
MAP2K1 (human) = MAP2K1 (human) (UniProt Q02750)
PRKD3 (human) = PRKD3 (human) (UniProt O94806)
PLK3 (human) = PLK3 (human) (UniProt Q9H4B4)
CaMK1 (human) = CaMK1 (human) (UniProt Q14012)
PLK1 (human) = PLK1 (human) (UniProt P53350)
MAP2K4 (human) = MAP2K4 (human) (UniProt P45985)
PIM3 (human) = PIM3 (human) (UniProt Q86V86)
ERBB2 (human) = ERBB2 (human) (UniProt P04626)
MST4 (human) = MST4 (human) (UniProt Q9P289)
RPS6KA6 KD2 (human) = RPS6KA6 KD2 (human) (UniProt Q9UK32)
RIOK3 (human) = RIOK3 (human) (UniProt O14730)
CHEK2 (human) = CHEK2 (human) (UniProt O96017)
MAP4K3 (human) = MAP4K3 (human) (UniProt Q8IVH8)
FYN (human) = FYN (human) (UniProt P06241)
[2] = target: JAK2 JH1 catalytic (human) (UniProt O60674)
RPS6KA5 KD2 (human) = RPS6KA5 KD2 (human) (UniProt O75582)
SGK110 (human) = SGK110 (human) (UniProt P0C264)
BMPR1A (human) = BMPR1A (human) (UniProt P36894)
CHUK (human) = CHUK (human) (UniProt O15111)
TEK (human) = TEK (human) (UniProt Q02763)

Sequence of TLK1 (human) (Q9UKI8 whole entry, looked up): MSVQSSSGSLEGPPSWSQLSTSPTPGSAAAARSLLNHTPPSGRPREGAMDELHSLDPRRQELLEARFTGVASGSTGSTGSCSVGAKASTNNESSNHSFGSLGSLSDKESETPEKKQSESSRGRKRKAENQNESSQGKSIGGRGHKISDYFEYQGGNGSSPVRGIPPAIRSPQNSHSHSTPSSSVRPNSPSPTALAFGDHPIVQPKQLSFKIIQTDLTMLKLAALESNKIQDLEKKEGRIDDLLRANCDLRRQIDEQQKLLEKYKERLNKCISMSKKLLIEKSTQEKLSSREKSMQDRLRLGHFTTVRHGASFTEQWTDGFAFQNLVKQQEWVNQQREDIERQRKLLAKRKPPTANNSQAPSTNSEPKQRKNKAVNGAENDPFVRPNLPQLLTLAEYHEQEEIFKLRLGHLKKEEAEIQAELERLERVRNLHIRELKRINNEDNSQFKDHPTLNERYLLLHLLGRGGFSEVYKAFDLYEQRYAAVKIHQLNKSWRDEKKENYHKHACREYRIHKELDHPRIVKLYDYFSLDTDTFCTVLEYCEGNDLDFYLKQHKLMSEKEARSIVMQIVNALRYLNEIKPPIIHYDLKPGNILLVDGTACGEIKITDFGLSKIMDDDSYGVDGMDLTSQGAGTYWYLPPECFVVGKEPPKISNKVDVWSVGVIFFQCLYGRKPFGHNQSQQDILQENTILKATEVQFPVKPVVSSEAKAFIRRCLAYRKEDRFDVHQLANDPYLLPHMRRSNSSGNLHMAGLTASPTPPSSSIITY
Sequence of CaMK1 (human) (Q14012 whole entry, looked up): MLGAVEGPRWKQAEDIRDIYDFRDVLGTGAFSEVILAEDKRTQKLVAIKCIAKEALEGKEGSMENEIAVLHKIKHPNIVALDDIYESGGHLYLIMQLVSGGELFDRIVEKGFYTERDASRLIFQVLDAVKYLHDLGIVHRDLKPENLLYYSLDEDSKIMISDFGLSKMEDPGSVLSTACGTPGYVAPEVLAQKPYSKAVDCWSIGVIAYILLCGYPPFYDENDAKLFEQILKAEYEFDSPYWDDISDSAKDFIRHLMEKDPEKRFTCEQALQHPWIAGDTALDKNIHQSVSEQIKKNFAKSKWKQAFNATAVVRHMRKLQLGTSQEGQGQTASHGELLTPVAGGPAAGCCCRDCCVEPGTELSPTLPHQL
Sequence of STK36 (human) (Q9NRP7 whole entry, looked up): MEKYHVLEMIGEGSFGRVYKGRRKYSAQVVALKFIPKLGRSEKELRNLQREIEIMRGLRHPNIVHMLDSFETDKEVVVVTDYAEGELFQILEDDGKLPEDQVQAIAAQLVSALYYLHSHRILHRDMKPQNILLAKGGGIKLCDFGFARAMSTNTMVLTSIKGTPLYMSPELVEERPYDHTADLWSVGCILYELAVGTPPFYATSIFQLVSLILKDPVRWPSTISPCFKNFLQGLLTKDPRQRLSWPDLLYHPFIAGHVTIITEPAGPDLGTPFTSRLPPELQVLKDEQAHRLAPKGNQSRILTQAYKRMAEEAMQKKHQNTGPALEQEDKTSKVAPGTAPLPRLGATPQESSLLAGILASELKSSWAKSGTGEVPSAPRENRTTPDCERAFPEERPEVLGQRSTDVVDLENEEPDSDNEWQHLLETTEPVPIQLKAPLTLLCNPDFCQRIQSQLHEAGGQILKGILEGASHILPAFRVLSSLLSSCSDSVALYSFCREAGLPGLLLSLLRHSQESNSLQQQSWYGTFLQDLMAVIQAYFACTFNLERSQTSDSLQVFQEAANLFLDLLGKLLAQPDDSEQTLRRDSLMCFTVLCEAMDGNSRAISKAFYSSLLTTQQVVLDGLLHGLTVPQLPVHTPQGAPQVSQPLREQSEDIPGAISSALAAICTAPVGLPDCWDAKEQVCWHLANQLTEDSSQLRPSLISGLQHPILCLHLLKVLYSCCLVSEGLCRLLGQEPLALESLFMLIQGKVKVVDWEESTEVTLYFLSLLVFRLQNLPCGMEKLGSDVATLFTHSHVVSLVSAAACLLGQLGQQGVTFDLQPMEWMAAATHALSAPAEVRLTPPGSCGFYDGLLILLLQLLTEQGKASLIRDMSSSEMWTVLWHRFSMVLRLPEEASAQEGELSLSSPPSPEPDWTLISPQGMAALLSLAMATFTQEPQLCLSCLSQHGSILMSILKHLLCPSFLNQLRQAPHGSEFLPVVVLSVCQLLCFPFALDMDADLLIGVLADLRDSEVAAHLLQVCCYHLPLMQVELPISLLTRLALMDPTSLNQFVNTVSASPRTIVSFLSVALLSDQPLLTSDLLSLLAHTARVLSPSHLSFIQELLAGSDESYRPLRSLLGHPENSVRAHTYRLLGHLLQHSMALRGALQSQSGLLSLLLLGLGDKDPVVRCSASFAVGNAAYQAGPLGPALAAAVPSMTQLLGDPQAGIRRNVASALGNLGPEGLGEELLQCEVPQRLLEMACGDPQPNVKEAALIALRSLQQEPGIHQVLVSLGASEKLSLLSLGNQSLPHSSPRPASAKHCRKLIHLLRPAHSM
Sequence of SRPK1 (human) (Q96SB4 whole entry, looked up): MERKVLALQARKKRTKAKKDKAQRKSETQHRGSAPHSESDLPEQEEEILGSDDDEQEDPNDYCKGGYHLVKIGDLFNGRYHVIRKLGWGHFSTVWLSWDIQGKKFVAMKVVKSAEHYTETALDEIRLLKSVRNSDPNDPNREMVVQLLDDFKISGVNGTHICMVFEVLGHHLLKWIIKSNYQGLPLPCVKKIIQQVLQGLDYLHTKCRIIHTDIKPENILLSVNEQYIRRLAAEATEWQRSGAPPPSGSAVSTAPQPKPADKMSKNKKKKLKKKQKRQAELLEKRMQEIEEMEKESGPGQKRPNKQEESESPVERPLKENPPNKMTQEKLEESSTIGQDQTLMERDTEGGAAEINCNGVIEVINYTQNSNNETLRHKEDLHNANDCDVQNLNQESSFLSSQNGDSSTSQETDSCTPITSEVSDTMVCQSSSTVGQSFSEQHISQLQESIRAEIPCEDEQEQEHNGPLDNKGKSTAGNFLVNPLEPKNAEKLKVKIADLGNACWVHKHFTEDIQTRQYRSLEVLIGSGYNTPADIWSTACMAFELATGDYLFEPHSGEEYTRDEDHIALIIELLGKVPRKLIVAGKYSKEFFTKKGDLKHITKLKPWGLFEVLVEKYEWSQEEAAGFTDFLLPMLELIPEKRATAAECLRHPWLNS
Sequence of MST4 (human) (Q9P289 whole entry, looked up): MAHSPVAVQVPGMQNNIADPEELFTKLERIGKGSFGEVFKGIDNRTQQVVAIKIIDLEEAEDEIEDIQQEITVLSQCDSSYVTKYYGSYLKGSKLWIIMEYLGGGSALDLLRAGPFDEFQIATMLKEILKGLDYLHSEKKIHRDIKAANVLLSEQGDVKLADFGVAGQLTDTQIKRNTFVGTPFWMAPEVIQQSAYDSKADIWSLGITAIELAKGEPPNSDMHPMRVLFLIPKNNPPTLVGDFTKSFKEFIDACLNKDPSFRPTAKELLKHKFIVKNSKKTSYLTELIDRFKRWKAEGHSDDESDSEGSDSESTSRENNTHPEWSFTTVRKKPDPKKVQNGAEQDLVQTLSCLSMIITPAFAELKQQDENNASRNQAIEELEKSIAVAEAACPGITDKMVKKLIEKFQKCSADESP
Sequence of ADCK3 (human) (Q8NI60 whole entry, looked up): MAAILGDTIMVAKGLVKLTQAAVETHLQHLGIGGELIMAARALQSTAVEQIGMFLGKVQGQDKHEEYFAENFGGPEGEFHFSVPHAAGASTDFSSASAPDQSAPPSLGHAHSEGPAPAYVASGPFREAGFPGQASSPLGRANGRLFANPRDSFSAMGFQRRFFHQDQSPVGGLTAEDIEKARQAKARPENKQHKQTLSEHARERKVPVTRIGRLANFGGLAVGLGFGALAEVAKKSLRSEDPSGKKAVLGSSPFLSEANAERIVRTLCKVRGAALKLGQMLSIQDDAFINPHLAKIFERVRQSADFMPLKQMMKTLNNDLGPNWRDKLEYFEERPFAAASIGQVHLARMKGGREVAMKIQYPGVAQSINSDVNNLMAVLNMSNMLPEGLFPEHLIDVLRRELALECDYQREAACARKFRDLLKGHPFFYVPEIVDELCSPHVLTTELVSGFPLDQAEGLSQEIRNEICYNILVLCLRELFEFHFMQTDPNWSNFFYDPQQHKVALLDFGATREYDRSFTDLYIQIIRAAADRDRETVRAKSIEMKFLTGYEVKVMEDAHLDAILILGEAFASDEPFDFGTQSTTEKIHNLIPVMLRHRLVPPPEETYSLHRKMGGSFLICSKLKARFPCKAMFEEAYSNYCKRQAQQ
Sequence of ACVR2A (human) (P27037 whole entry, looked up): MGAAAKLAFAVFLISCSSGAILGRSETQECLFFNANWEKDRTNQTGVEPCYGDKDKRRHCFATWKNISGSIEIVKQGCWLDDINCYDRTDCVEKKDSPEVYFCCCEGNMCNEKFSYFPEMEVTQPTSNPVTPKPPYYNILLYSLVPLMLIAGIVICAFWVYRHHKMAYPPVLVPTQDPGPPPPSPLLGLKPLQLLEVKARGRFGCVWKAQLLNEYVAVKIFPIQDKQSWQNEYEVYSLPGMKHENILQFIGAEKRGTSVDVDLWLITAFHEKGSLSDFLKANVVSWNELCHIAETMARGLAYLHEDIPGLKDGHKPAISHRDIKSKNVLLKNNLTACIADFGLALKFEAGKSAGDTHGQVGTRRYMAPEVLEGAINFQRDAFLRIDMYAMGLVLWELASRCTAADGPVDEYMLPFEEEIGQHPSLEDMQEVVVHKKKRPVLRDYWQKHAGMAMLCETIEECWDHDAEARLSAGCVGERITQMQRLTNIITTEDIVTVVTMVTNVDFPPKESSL

SMILES	kinase still bound, per cent of control (CLK4 (human)) [%]	kinase still bound, per cent of control (PAK7 (human)) [%]	kinase still bound, per cent of control (ADCK3 (human)) [%]	kinase still bound, per cent of control (CDK5 (human)) [%]	kinase still bound, per cent of control (SRPK1 (human)) [%]	kinase still bound, per cent of control (TESK1 (human)) [%]	kinase still bound, per cent of control (MARK1 (human)) [%]	kinase still bound, per cent of control [1] [%]	kinase still bound, per cent of control (PTK2 (human)) [%]	kinase still bound, per cent of control (PRKCH (human)) [%]	kinase still bound, per cent of control (TLK1 (human)) [%]	kinase still bound, per cent of control (PDGFRB (human)) [%]	kinase still bound, per cent of control (IKBKE (human)) [%]	kinase still bound, per cent of control (STK36 (human)) [%]	kinase still bound, per cent of control (CDC42BPA (human)) [%]	kinase still bound, per cent of control (DMPK (human)) [%]	kinase still bound, per cent of control (CAMK2B (human)) [%]	kinase still bound, per cent of control (ACVR2A (human)) [%]	kinase still bound, per cent of control (EPHB2 (human)) [%]	kinase still bound, per cent of control (MAP2K1 (human)) [%]	other results
N#Cc1c(NC(=O)c2cccc3ccccc23)sc2c1CCCC2	84	100	100	100	100	83	100	60	91	87	76	44	100	66	100	83	90	69	75	98	kinase still bound, per cent of control (CSNK1E (human)): 70%; kinase still bound, per cent of control (PRKD3 (human)): 84%; kinase still bound, per cent of control (PLK3 (human)): 100%; kinase still bound, per cent of control (CaMK1 (human)): 73%; kinase still bound, per cent of control (PLK1 (human)): 81%; kinase still bound, per cent of control (MAP2K4 (human)): 94%; kinase still bound, per cent of control (PIM3 (human)): 100%; kinase still bound, per cent of control (ERBB2 (human)): 87%; kinase still bound, per cent of control (MST4 (human)): 79%; kinase still bound, per cent of control (RPS6KA6 KD2 (human)): 77%; kinase still bound, per cent of control (RIOK3 (human)): 100%; kinase still bound, per cent of control (CHEK2 (human)): 84%; kinase still bound, per cent of control (MAP4K3 (human)): 79%; kinase still bound, per cent of control (FYN (human)): 63%; kinase still bound, per cent of control [2]: 100%; kinase still bound, per cent of control (RPS6KA5 KD2 (human)): 95%; kinase still bound, per cent of control (SGK110 (human)): 91%; kinase still bound, per cent of control (BMPR1A (human)): 96%
Nc1ccc(-c2ccc3ncc4ccc(=O)n(-c5cccc(C(F)(F)F)c5)c4c3c2)cn1	34	69	88	92	100	94	100	55	75	99	90	34	89	99	99	95	100	95	98	100	kinase still bound, per cent of control (CHUK (human)): 55%; kinase still bound, per cent of control (TEK (human)): 100%; kinase still bound, per cent of control (PRKD3 (human)): 100%; kinase still bound, per cent of control (PLK3 (human)): 94%; kinase still bound, per cent of control (CaMK1 (human)): 82%; kinase still bound, per cent of control (PLK1 (human)): 94%; kinase still bound, per cent of control (MAP2K4 (human)): 44%; kinase still bound, per cent of control (PIM3 (human)): 100%; kinase still bound, per cent of control (ERBB2 (human)): 97%; kinase still bound, per cent of control (MST4 (human)): 73%; kinase still bound, per cent of control (RPS6KA6 KD2 (human)): 70%; kinase still bound, per cent of control (RIOK3 (human)): 100%; kinase still bound, per cent of control (CHEK2 (human)): 100%; kinase still bound, per cent of control (MAP4K3 (human)): 63%; kinase still bound, per cent of control (FYN (human)): 92%; kinase still bound, per cent of control [2]: 64%; kinase still bound, per cent of control (RPS6KA5 KD2 (human)): 100%; kinase still bound, per cent of control (SGK110 (human)): 100%; kinase still bound, per cent of control (BMPR1A (human)): 100%
CCOc1cc2ncc(C#N)c(Nc3ccc(OCc4ccccn4)c(Cl)c3)c2cc1NC(=O)/C=C/CN(C)C	100	72	95	100	100	100	94	100	65	100	86	69	100	69	91	98	100	100	86	0.4	kinase still bound, per cent of control (CSNK1E (human)): 26%; kinase still bound, per cent of control (CHUK (human)): 81%; kinase still bound, per cent of control (TEK (human)): 56%; kinase still bound, per cent of control (PRKD3 (human)): 65%; kinase still bound, per cent of control (PLK3 (human)): 94%; kinase still bound, per cent of control (CaMK1 (human)): 88%; kinase still bound, per cent of control (PLK1 (human)): 57%; kinase still bound, per cent of control (MAP2K4 (human)): 72%; kinase still bound, per cent of control (PIM3 (human)): 100%; kinase still bound, per cent of control (ERBB2 (human)): 0%; kinase still bound, per cent of control (MST4 (human)): 2%; kinase still bound, per cent of control (RPS6KA6 KD2 (human)): 97%; kinase still bound, per cent of control (RIOK3 (human)): 97%; kinase still bound, per cent of control (CHEK2 (human)): 79%; kinase still bound, per cent of control (MAP4K3 (human)): 2.1%; kinase still bound, per cent of control (FYN (human)): 84%; kinase still bound, per cent of control (RPS6KA5 KD2 (human)): 77%; kinase still bound, per cent of control (SGK110 (human)): 100%; kinase still bound, per cent of control (BMPR1A (human)): 89%
CCCS(=O)(=O)Nc1ccc(F)c(C(=O)c2c[nH]c3ncc(-c4ccc(Cl)cc4)cc23)c1F	100	78	100	96	92	29	100	0.05	63	100	95	0.15	100	4.6	80	67	98	100	99	10	kinase still bound, per cent of control (CHUK (human)): 87%; kinase still bound, per cent of control (TEK (human)): 62%; kinase still bound, per cent of control (PRKD3 (human)): 44%; kinase still bound, per cent of control (PLK3 (human)): 93%; kinase still bound, per cent of control (CaMK1 (human)): 25%; kinase still bound, per cent of control (PLK1 (human)): 100%; kinase still bound, per cent of control (MAP2K4 (human)): 5%; kinase still bound, per cent of control (PIM3 (human)): 100%; kinase still bound, per cent of control (ERBB2 (human)): 100%; kinase still bound, per cent of control (MST4 (human)): 100%; kinase still bound, per cent of control (RPS6KA6 KD2 (human)): 75%; kinase still bound, per cent of control (RIOK3 (human)): 100%; kinase still bound, per cent of control (CHEK2 (human)): 100%; kinase still bound, per cent of control (MAP4K3 (human)): 56%; kinase still bound, per cent of control (FYN (human)): 9.1%; kinase still bound, per cent of control [2]: 84%; kinase still bound, per cent of control (RPS6KA5 KD2 (human)): 100%; kinase still bound, per cent of control (SGK110 (human)): 100%; kinase still bound, per cent of control (BMPR1A (human)): 34%
